Laboratory results reported in US20230398125A1, “TREATING HEPATITIS” (Albireo AB, priority 2022, published 2023).
Where two headings read alike, the source gives them in different places.

Experiments:
[1] = Pharmacokinetic phase: plasma exposure after oral dosing in non-infected PXB mice; format: in vivo; details: for concentration at 0.5 h / concentration at 1 h / concentration at 2 h / concentration at 4 h / concentration at 6 h / concentration at 24 h: PXB, mouse, plasma, po
Protocol: Thirty microliters (30 μL) of blood were collected from all animals under isoflurane anesthesia via the retro-orbital plexus/sinus using sodium heparin-coated calibrated pipettes according to the collection schedule shown in Table 7. The individual blood samples of the animals were transferred to labeled microtubes and stored under chilled conditions until centrifugation at 3500×g, 5° C. for 10 minutes to obtain plasma. Individual plasma samples were transferred into separately labeled microtubes and snap frozen in liquid nitrogen. The plasma exposure of Compound 1 from the pharmacokinetic phase was measured via LC/MS- MS. The lower limit of quantitation was 1 ng/mL.

HBV genotype C = assay: Serum HBeAg in HBV-infected PXB mice; format: in vivo, hepatitis B virus; details: 10 mg/kg and 30 mg/kg, Day 14
Protocol: Target volume of blood was collected from all surviving animals under isoflurane anesthesia via the retro-orbital plexus/sinus using Intramedic™ Polyethylene Tubing at each time point. Two microliters (2 μL) from the collected blood were used for human albumin measurements. The remaining blood was centrifuged to separate serum to be used for analyzing the indicated biomarkers. Blood samples were collected according to Table 8.
The individual blood samples of the animals were left at room temperature for at least 5 minutes to coagulate and then centrifuged at 13200×g, 4° C. for 3 minutes to obtain serum. The serum was divided into separate labeled microtubes and stored at −80° C. until analysis.
Serum HBeAg concentration was determined by SRL, Inc. based on a Chemiluminescent Enzyme Immuno Assay (CLEIA) developed by Fujirebio ([…] HBeAg, […]® Prestoll). The dilution factor was 30 and 10, and the measurement range of this assay was between 0.1 and 1590 C.O.I. For the 30-fold diluted samples, the measurement range was adjusted to be between 3 and 47700 C.O.I. And for the 10-fold diluted samples, the measurement range was adjusted to be between 1 and 15900 C.O.I. The lowest quantification limit of this assay was 3.0 C.O.I.

[2] = 10 mg/kg, non-infected PXB mice, 10 mg/kg p.o., animal 101, read-out: Plasma conc.
[3] = 10 mg/kg, non-infected PXB mice, 10 mg/kg p.o., animal 102, read-out: Plasma conc.
[4] = 10 mg/kg, non-infected PXB mice, 10 mg/kg p.o., animal 103, read-out: Plasma conc.
[5] = 10 mg/kg, non-infected PXB mice, 10 mg/kg p.o., mean of 3 animals, read-out: Plasma conc. Mean ± SD
[6] = 10 mg/kg, non-infected PXB mice, 10 mg/kg p.o., animal 201, read-out: Plasma conc.
[7] = 10 mg/kg, non-infected PXB mice, 10 mg/kg p.o., animal 202, read-out: Plasma conc.
[8] = 10 mg/kg, non-infected PXB mice, 10 mg/kg p.o., animal 203, read-out: Plasma conc.
[9] = 30 mg/kg, non-infected PXB mice, 30 mg/kg p.o., animal 301, read-out: Plasma conc.
[10] = 30 mg/kg, non-infected PXB mice, 30 mg/kg p.o., animal 302, read-out: Plasma conc.
[11] = 30 mg/kg, non-infected PXB mice, 30 mg/kg p.o., animal 303, read-out: Plasma conc.
[12] = 30 mg/kg, non-infected PXB mice, 30 mg/kg p.o., mean of 3 animals, read-out: Plasma conc. Mean ± SD
[13] = 30 mg/kg, non-infected PXB mice, 30 mg/kg p.o., animal 401, read-out: Plasma conc.
[14] = 30 mg/kg, non-infected PXB mice, 30 mg/kg p.o., animal 402, read-out: Plasma conc.
[15] = 30 mg/kg, non-infected PXB mice, 30 mg/kg p.o., animal 403, read-out: Plasma conc.

With `CCCCC1CN(c2ccccc2)c2cc(SC)c(O/C=C(\F)C(=O)O)cc2S(=O)(=O)N1C` (stereo not drawn) [Compound 1, (Z)-3-((3-butyl-2-methyl-7-(methylthio)-1,1-dioxido-5-phenyl-2,3,4,5-tetrahydro-1,2,5-benzothiadiazepin-8-yl)oxy)-2-fluoroacrylic acid] the “plasma exposure versus dose” value ([1]; 10 and 30 mg/kg p.o.) was “increased with increased dose”, the detection in plasma ([1]; 10 and 30 mg/kg p.o., non-infected PXB mice) was “detected in plasma throughout the 24-hour time period” and the concentration at 0.5 h [1, 2] was 1290 ng/mL. For the same compound, the concentration at 0.5 h [1, 3] was 2650 ng/mL, the concentration at 0.5 h [1, 4] was 727 ng/mL and the concentration at 0.5 h [1, 5] was 1560 ± 990 ng/mL. It also gave a concentration at 1 h [1, 6] of 492 ng/mL, a concentration at 1 h [1, 7] of 763 ng/mL and a concentration at 1 h [1, 8] of 1810 ng/mL. For the same compound, the concentration at 1 h [1, 5] was 1020 ± 690 ng/mL, the concentration at 2 h [1, 2] was 194 ng/mL and the concentration at 2 h [1, 3] was 322 ng/mL. The concentration at 2 h [1, 4] was 177 ng/mL, the concentration at 2 h [1, 5] was 231 ± 79 ng/mL and the concentration at 4 h [1, 6] was 111 ng/mL. It also gave a concentration at 4 h [1, 7] of 61.4 ng/mL, a concentration at 4 h [1, 8] of 587 ng/mL and a concentration at 4 h [1, 5] of 253 ± 290 ng/mL. For the same compound, the concentration at 6 h [1, 2] was 46.2 ng/mL, the concentration at 6 h [1, 3] was 63.5 ng/mL and the concentration at 6 h [1, 4] was 130 ng/mL. It also gave a concentration at 6 h [1, 5] of 80 ± 44 ng/mL, a concentration at 24 h [1, 6] of 25.3 ng/mL and a concentration at 24 h [1, 7] of 27.2 ng/mL. The concentration at 24 h [1, 8] was 1.4 ng/mL, the concentration at 24 h [1, 5] was 18 ± 14 ng/mL and the concentration at 0.5 h [1, 9] was 1880 ng/mL. It also gave a concentration at 0.5 h [1, 10] of 2910 ng/mL, a concentration at 0.5 h [1, 11] of 6810 ng/mL and a concentration at 0.5 h [1, 12] of 3870 ± 2600 ng/mL. The concentration at 1 h [1, 13] was 4560 ng/mL, the concentration at 1 h [1, 14] was 5320 ng/mL and the concentration at 1 h [1, 15] was 1470 ng/mL. The concentration at 1 h [1, 12] was 3780 ± 2000 ng/mL, the concentration at 2 h [1, 9] was 2420 ng/mL and the concentration at 2 h [1, 10] was 590 ng/mL. It also gave a concentration at 2 h [1, 11] of 3040 ng/mL, a concentration at 2 h [1, 12] of 2020 ± 1300 ng/mL and a concentration at 4 h [1, 13] of 1120 ng/mL. It also gave a concentration at 4 h [1, 14] of 1090 ng/mL, a concentration at 4 h [1, 15] of 217 ng/mL and a concentration at 4 h [1, 12] of 811 ± 510 ng/mL. The concentration at 6 h [1, 9] was 554 ng/mL, the concentration at 6 h [1, 10] was 99.8 ng/mL and the concentration at 6 h [1, 11] was 1490 ng/mL. For the same compound, the concentration at 6 h [1, 12] was 715 ± 700 ng/mL, the concentration at 24 h [1, 13] was 230 ng/mL and the concentration at 24 h [1, 14] was 229 ng/mL. The concentration at 24 h [1, 15] was 148 ng/mL, the concentration at 24 h [1, 12] was 202 ± 47 ng/mL and the “serum HBeAg compared to controls” value (HBV genotype C) was “lower”.
